Reference: patent publication US8389557B2, “Triazole derivatives useful as Axl inhibitors” (Rigel Pharmaceuticals, Inc., priority 2005, dated 2013)
pIC50: −log10 of the molar value.

Target: T1, Axl (Homo sapiens, UniProt P30530)
T1 construct: endogenous in cells; host or cells: HeLa cells
T1 sequence (P30530 26-894): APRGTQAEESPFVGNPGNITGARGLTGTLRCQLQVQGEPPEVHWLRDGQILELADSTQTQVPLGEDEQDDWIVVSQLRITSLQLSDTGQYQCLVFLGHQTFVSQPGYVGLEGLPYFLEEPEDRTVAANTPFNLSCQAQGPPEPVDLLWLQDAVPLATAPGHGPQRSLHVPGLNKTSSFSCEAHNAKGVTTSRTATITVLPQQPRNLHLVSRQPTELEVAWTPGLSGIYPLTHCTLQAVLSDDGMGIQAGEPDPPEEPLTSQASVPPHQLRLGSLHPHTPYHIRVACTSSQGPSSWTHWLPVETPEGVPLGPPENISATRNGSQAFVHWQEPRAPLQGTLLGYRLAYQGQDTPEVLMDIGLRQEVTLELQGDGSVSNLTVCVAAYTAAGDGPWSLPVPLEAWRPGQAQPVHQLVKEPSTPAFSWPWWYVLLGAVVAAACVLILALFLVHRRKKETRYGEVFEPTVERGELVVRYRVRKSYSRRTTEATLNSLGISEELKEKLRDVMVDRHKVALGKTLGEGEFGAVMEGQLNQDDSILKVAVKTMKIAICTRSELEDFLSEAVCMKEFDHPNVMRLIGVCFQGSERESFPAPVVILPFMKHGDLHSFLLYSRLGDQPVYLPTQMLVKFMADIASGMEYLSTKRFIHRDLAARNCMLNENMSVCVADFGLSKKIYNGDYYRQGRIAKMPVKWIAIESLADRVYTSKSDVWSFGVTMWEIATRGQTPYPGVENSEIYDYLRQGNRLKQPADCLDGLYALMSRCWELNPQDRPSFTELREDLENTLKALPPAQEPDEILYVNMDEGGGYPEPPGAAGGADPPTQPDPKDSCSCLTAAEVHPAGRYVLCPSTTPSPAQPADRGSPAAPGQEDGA
Assay: Phospho-Akt in-cell Western assay (inhibition of Axl activity)
Assay type: cell-based
In short: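 HeLa cells on poly-L-lysine, starved 24 h in 0.5% FCS DMEM with Axl/Fc 500 ng/mL, pre-treated with compound 1 h at 37° C. Axl stimulated 5 min by anti-Axl/anti-mouse antibody cross-linking. Fixed cells probed with anti-phospho-Akt and HRP secondary, chemiluminescence read.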

[1] = Table 3, Hela cells, Axl antibody cross-linking stimulation, phospho-Akt chemiluminescence
[2] = Table 5, Hela cells, Axl antibody cross-linking stimulation, phospho-Akt chemiluminescence
[3] = Table 2, Hela cells, Axl antibody cross-linking stimulation, phospho-Akt chemiluminescence
[4] = inhibition of Axl activity, Table 1

Compound	pIC50 [2]	pIC50 [4]	also measured
Nc1nc(Nc2ccc(OCCN3CCCC3)cc2)nn1C(=O)c1ccccn1 [compound 203, 5-amino-1-(pyridin-2-yl)carbonyl-3-[4-[2-(pyrrolidin-1-yl)ethoxy]phenylamino]-1H-1,2,4-triazole]	–	–	pIC50 [1]: < 4.70
Nc1nc(Nc2ccc(OCCN3CCCC3)cc2)nn1C(=O)c1ccncc1 [compound 204, 5-amino-1-(pyridin-4-yl)carbonyl-3-[4-[2-(pyrrolidin-1-yl)ethoxy]phenylamino]-1H-1,2,4-triazole]	–	–	pIC50 [1]: < 4.70
Cc1cccc(C(=O)n2nc(Nc3ccc4c(c3)N(C(=O)OC(C)(C)C)CCO4)nc2N)c1 [compound 206, 5-amino-3-[(2H,3H-4-tert-butoxycarbonylbenzo[1,4]oxazin-6-yl)amino]-1-(3-methylphenyl)carbonyl-1,2,4-triazole]	< 4.70	–	–
Cc1cccc(C(=O)n2nc(Nc3ccc4oc(C(=O)NCCOC5CCCCO5)cc4c3)nc2N)c1 (centres unmarked) [compound 207, 5-amino-1-(3-methylphenyl)carbonyl-3-[2-[N-[2-(tetrahydropyran-2-yloxy)ethyl]amino]carbonylbenzofuran-5-yl]amino-1H-1,2,4-triazole]	5.00 to 6.00	–	–
Cc1cccc(C(=O)n2nc(Nc3ccc4oc(C(=O)NCCO)cc4c3)nc2N)c1 [compound 208, 5-amino-3-[2-[2-hydroxyethylaminocarbonyl]benzofuran-5-yl]amino-1-(3-methylphenyl)carbonyl-1H-1,2,4-triazole]	5.00 to 6.00	–	–
Nc1nc(Nc2ccc3c(c2)OCCO3)n(C(=O)c2cccc(OCCC3OCCO3)c2)n1 [compound 209]	–	–	pIC50 [3]: < 4.70
Nc1nc(Nc2ccc3c(c2)OCCO3)nn1C(=O)c1cccc(OCCC2OCCO2)c1 [compound 210]	–	5.00 to 6.00	–
Cc1ccc(C(=O)n2nc(Nc3ccccc3O)nc2N)cc1 [compound 211, 5-amino-3-[2-(hydroxyl)phenylamino]-1-(4-methylphenyl)carbonyl-1H-1,2,4-triazole]	–	< 4.70	–
COCCOCOc1cccc(Nc2nc(N)n(C(=O)c3cccc(C)c3)n2)c1 [compound 212, 5-amino-1-(3-methylphenyl)carbonyl-3-[3-[(2-methoxyethoxy)methoxy]phenylamino]-1H-1,2,4-triazole]	–	5.00 to 6.00	–
Nc1nc(Nc2ccc3c(c2)OCCO3)n(C(=O)c2ccc(OCCC3OCCO3)cc2)n1 [compound 213]	–	–	pIC50 [3]: < 4.70
Nc1nc(Nc2ccc3c(c2)OCCO3)nn1C(=O)c1ccc(OCCC2OCCO2)cc1 [compound 214]	–	5.00 to 6.00	–
Cc1cccc(C(=O)n2nc(Nc3ccc4c(c3)NCCO4)nc2N)c1 [compound 215, 5-amino-3-[(3,4-dihydrobenzo[1,4]oxazin-6-yl)amino]-1-(3-methylphenyl)carbonyl-1H-1,2,4-triazole]	< 4.70	–	–

The next lines start with results.

pIC50 [2]	pIC50 [4]	Compound	also measured
–	< 4.70	COCOc1cccc(Nc2nc(N)n(C(=O)c3cccc(C)c3)n2)c1 [compound 216, 5-amino-3-(3-methoxymethoxy)phenylamino-1-(3-methylphenyl)carbonyl-1H-1,2,4-triazole]	–
–	< 4.70	Nc1nc(Nc2ccc(Cl)cc2)nn1C(=O)c1ccc(Cl)cc1 [compound 217, 5-amino-3-(4-chlorophenyl)amino-1-(4-chlorophenyl)carbonyl-1H-1,2,4-triazole]	–
–	5.00 to 6.00	Nc1nc(Nc2ccc(Br)cc2)nn1C(=O)c1ccc(Cl)cc1 [compound 218, 5-amino-3-(4-bromophenyl)amino-1-(4-chlorophenyl)carbonyl-1H-1,2,4-triazole]	–
5.00 to 6.00	–	CCOC(=O)c1cc2cc(Nc3nc(N)n(C(=O)c4cccc(C)c4)n3)ccc2o1 [compound 219, 5-amino-3-[2-(ethoxycarbonyl)benzofuran-5-yl]amino-1-(3-methylphenyl)carbonyl-1H-1,2,4-triazole]	–
< 4.70	–	Cc1cccc(C(=O)n2nc(Nc3cccnc3)nc2N)c1 [compound 220, 5-amino-1-(3-methylphenyl)carbonyl-3-(pyridin-3-yl)amino-1H-1,2,4-triazole]	–
